What was measured:
IL-1α = assay: LPS-induced plasma IL-1α, bead-based immunoassay (Luminex); type: in vivo, mice; conditions: mouse plasma
Procedure: (§1) The intriguing bi-phasic modulation of NF-κB activation described in Example 1 was further investigated by repeating the LPS induction experiment and performing subsequent imaging analysis at 0 hour and 2, 4, 6 and 24 hours post-LPS treatment. Moreover, blood samples were collected at each of the timepoints and plasma was prepared for evaluation of effects of irindalone on quantities of circulating cytokines. […] Specifically, irindalone suppressed LPS-induced pro-inflammatory cytokines eotaxin (FIG. 3A) and TNF-α (FIG. 3B) at the 2-hour time point and IL-1α at both 2 hours and 6 hours post-LPS injection (FIG. 3C).

TNF-α = assay: LPS-induced plasma TNF-α, bead-based immunoassay (Luminex); type: in vivo, mice; conditions: 2-hour time point post-LPS; mouse plasma
Procedure: as §1

IL-10 = assay: LPS-induced plasma IL-10, bead-based immunoassay (Luminex); type: in vivo, mice; conditions: all time points measured (2, 4, 6, 24 hours post-LPS), most pronounced at 2 and 4 hours; mouse plasma
Procedure: as §1

5-HT2A = 5-HT2A (Homo sapiens, UniProt P28223); conditions: cited from earlier work
Chain of 5-HT2A (P28223 whole entry, species assumed): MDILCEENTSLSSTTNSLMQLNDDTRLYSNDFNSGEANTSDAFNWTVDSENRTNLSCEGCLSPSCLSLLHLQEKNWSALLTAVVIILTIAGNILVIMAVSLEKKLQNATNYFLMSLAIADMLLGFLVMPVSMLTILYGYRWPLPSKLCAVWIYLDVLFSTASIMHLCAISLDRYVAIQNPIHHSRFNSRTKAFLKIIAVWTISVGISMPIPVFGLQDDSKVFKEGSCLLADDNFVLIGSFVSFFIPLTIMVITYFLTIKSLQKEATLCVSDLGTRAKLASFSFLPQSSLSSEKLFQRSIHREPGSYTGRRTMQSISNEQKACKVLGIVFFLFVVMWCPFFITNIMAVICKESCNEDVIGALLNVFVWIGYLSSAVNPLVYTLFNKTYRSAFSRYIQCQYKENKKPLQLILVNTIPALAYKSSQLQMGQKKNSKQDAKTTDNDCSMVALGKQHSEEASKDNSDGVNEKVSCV

adrenergic receptor al = conditions: compared with its 5-HT2A affinity; cited from earlier work
histamine H1 receptor = histamine H1 receptor (Homo sapiens, UniProt P35367); conditions: compared with its 5-HT2A affinity; cited from earlier work
Chain of histamine H1 receptor (P35367 whole entry, species assumed): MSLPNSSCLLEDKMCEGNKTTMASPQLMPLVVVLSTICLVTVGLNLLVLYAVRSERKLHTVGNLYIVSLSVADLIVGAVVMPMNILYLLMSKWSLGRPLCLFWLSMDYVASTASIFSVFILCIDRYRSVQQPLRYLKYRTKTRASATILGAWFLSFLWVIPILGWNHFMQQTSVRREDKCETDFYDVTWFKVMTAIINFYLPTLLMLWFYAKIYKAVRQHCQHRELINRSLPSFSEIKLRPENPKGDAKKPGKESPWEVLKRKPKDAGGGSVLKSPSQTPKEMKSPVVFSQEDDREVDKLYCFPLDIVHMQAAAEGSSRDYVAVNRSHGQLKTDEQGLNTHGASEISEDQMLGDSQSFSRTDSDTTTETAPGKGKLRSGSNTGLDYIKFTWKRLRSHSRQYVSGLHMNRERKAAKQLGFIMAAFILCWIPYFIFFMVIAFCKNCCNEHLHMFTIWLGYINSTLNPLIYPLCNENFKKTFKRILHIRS

NF-κB [1] = assay: in vivo imaging of LPS-induced NF-κB:luciferase reporter activation in NF-κB:LUC transgenic mice; conditions: for LPS-induced NF-κB reporter (fold change from 0 hour), Example 1: 1 or 10 mg/kg p.o. one hour prior to sLPS 2.5 mg/kg i.v., whole body imaging; for LPS-induced NF-κB activation, Example 2 (FIG. 2): repeat experiment
Procedure: Effects of irindalone on rodent physiological processes were evaluated using bio-photonic in vivo imaging. Specifically, this technology was used to investigate temporal and spatial modulation of physiological processes following acute compound administration. Transgenic mice expressing a firefly luciferase reporter driven by a series of promoters that represent a wide spectrum of potential disease states were used. Light emitted by luciferase in the presence of a luciferin substrate was detected and analyzed using a highly sensitive CCD imaging system. Mice were anesthetized and imaged at the indicated time points followed by visual and quantitative analysis based on counting photons of light emitted from specific regions of interest. Observations were followed by confirmatory and additional heuristic studies, including direct measurement of luciferase activity in harvested tissues and organs. As detailed below, the properties of irindalone were analyzed on three distinct transgenic lines, NF-κB:LUC, AP-1:LUC and HO-1:LUC. For this Example, the NF-κB transgenic mouse line was constructed using three NF-κB response elements fused to a firefly luciferase reporter. The effect of acute compound administration on inflammatory and immunomodulatory processes was monitored using activation of the luciferase reporter as a surrogate readout for activation of NF-κB transcription factor. […] For these studies, male mice (n=5 per group) were administered irindalone (0, 1 or 10 mg/kg, p.o.) one hour prior to injection with soluble lipopolysaccharide (sLPS, 2.5 mg/kg, i.v.). Whole body images were obtained prior to drug pretreatment (0 hour time point) and again at 2, 4, and 6 hours post-LPS treatment. […] The intriguing bi-phasic modulation of NF-κB activation described in Example 1 was further investigated by repeating the LPS induction experiment and performing subsequent imaging analysis at 0 hour and 2, 4, 6 and 24 hours post-LPS treatment. Moreover, blood samples were collected at each of the timepoints and plasma was prepared for evaluation of effects of irindalone on quantities of circulating cytokines.

HO-1 promoter = assay: CdCl2-induced HO-1:LUC promoter activation in HO-1:LUC transgenic mice; type: in vivo
Description: The HO-1 luciferase transgenic mouse line was constructed using 15,000 base pairs of the HO-1 promoter fused to a firefly luciferase reporter. The HO-1 promoter is highly responsive to oxidative stress, hypoxia and other stimuli that influence the oxidative state of the animal. Increased expression of the HO-1 pathway limits tissue damage in response to a wide variety of proinflammatory stimuli associated with oxidative stress including hypoxia, hyperoxia, cytokines, nitric oxide (NO), heavy metals, ultraviolet-A radiation, heat shock, shear stress, hydrogen peroxide, and thiol (—SH)-reactive substances, endotoxin, allograft rejection, etc. This promoter region has several enhancer sequences that confer responsiveness to the wide set of stimuli mentioned above. In this mouse model, luciferase expression is an indicator of the induction of the HO-1 promoter/gene expression. In order to assess the ability of irindalone to modulate the oxidative state of mice stressed with cadmium chloride (CdCl2), male mice (n=5 per group) were dosed with irindalone (0, 1 or 10 mg/kg, p.o.) one hour prior to injection with CdCl2 (2 mg/kg, i.v.). Whole body images were obtained prior to irindalone pretreatment (0 hour) and again at 4, 6, and 24 hours post-CdCl2 treatment. Irindalone suppressed CdCl2-induced luciferase expression (FIG. 6). […] Additional anatomical regions also posted trends in suppression at early time points.

IL-13 = assay: plasma IL-13 in normal unstimulated rats, bead-based multiplex immunoassay (Luminex); type: in vivo; conditions: 1 and 5 mg/kg oral twice daily for 7 days, blood approximately 4 hours after last dose
Procedure: (§2) The effects of irindalone were also investigated in normal unstimulated rats that were subject to twice-daily oral dosing with irindalone (1 and 5 mg/kg) for 7 consecutive days. Blood was collected approximately 4 hours after administration of the last dose, plasma was prepared and cytokines were measured using a bead-based multiplex immunoassay (Luminex Corp.).

eotaxin = assay: LPS-induced plasma eotaxin, bead-based immunoassay (Luminex); type: in vivo, mice; conditions: 2-hour time point post-LPS; mouse plasma
Procedure: as §1

CXCL1 (GRO/KC) = assay: plasma CXCL1 (GRO/KC) in normal unstimulated rats, bead-based multiplex immunoassay (Luminex); type: in vivo; conditions: 1 and 5 mg/kg oral twice daily for 7 days, blood approximately 4 hours after last dose, not dose-proportionately
Procedure: as §2

NF-κB [2] = assay: LPS-induced NF-κB activation in harvested organs and tissues (luciferase/protein assay) of NF-κB:LUC transgenic mice; type: in vivo; conditions: 10 mg/kg p.o. one hour prior to LPS 2.5 mg/kg i.v.; 2 hours post-LPS; most pronounced changes in visceral fat, gastrointestinal tract and brain
Procedure: To determine whether these effects can be localized to a particular tissue or organ system, additional experimentation was performed (similar in design to that as described in Example 1). For these studies, male mice (n=5 per group) were administered irindalone (0 and 10 mg/kg, p.o.) one hour prior to injection with LPS (2.5 mg/kg, i.v.). Whole body images were obtained prior to drug pretreatment (0 hour) and again at 2 hours post-LPS treatment (data not shown). A broad collection of internal tissues and organs were then removed and snap frozen for further analysis. Specifically, harvested tissues were homogenized, cells were lysed and utilized for luciferase and protein quantification assays to obtain relative units of light/μg protein. Results (FIG. 4) illustrate normalized comparisons between LPS alone versus irindalone+LPS.

AP-1 = assay: TPA-induced AP-1:LUC reporter activation in skin of AP-1:LUC transgenic mice; type: in vivo; conditions: irindalone 1 and 10 mg/kg p.o. (dose-dependent) or DEX 4.5 mg/kg i.p. one hour prior to topical TPA 10 μg
Procedure: The AP-1:LUC transgenic line was constructed with four copies of the AP-1 response element fused to a firefly luciferase reporter. […] For the current studies, the backs of mice (n=5 per group) were shaved (area size approximately 1.5×3 cm) and pre-imaged. Mice were administered vehicle (saline), irindalone (dosing at 1 and 10 mg/kg; p.o.) or dexamethasone as a positive control (DEX, 4.5 mg/kg, i.p.) one hour prior to topical application of the phorbol ester 12-O-tetradecanoyl-phorbol-13-acetate (TPA, 0.05 mg/ml in acetone; total dose 10 μg).

Compound | LPS-induced IL-1α level in plasma (IL-1α; 2 hours post-LPS injection) | LPS-induced IL-1α level in plasma (IL-1α; 6 hours post-LPS injection) | LPS-induced TNF-α level in plasma (TNF-α) | anti-inflammatory cytokine IL-10 level in plasma (IL-10) | IC50 (5-HT2A; read-out: affinity (IC50) for 5-HT2A) [nM] | affinity for adrenergic receptor al, in words (adrenergic receptor al) | affinity for histamine H1 receptor, in words (histamine H1 receptor) | LPS-induced NF-κB reporter (fold change from 0 hour), Example 1 (NF-κB [1]; after 2 hours) | LPS-induced NF-κB reporter (fold change from 0 hour), Example 1 (NF-κB [1]; after 6 hours) | LPS-induced NF-κB activation, Example 2 (FIG. 2) (NF-κB [1]; early time point (2 hours) post-LPS) | LPS-induced NF-κB activation, Example 2 (FIG. 2) (NF-κB [1]; later time points (4, 6, 24 hours imaged) post-LPS) | CdCl2-induced luciferase expression (HO-1 promoter) (HO-1 promoter; 1 or 10 mg/kg p.o. one hour prior to CdCl2 2 mg/kg i.v., whole body images at 4, 6, 24 hours) | CdCl2-induced luciferase expression (HO-1 promoter), mid back region (HO-1 promoter; mid back region, all time points (4, 6, 24 hours)) | CdCl2-induced luciferase expression (HO-1 promoter), sublingual and lower back regions (HO-1 promoter; sublingual and lower back regions, earlier time points) | IL-13 levels in plasma compared to vehicle (IL-13) | LPS-induced eotaxin level in plasma (eotaxin) | CXCL1 (GRO/KC) levels in plasma (CXCL1 (GRO/KC)) | LPS-induced NF-κB activation in harvested tissues (units of light/μg protein, normalized) (NF-κB [2]) | TPA-induced AP-1 activation in skin (AP-1) | 5-HT2A affinity, in words (5-HT2A; compared with irindalone)
O=C1NCCN1CCN1CCN([C@@H]2C[C@@H](c3ccc(F)cc3)c3ccccc32)CC1 [Irindalone, (+)-(1R,3S)-1-[2-[4-[3-(p-fluorophenyl)-1-indanyl]-1-piperazinyl]-ethyl]-2-imidazolidinone] | suppressed | suppressed | suppressed | increase | 3.4 | somewhat weaker affinity | somewhat weaker affinity | broad suppression | broad enhancement | suppression | enhancement | suppressed | Dramatic suppression | Dramatic suppression | increased | suppressed | lowered | Tissue-Selective Effect | dramatically repressed | –
O=C1NCCN1CCN1CCN([C@H]2C[C@H](c3ccc(F)cc3)c3ccccc32)CC1 [Lu 21-099] | – | – | – | – | – | – | – | – | – | – | – | – | – | – | – | – | – | – | – | weaker 5-HT2A affinity
